{
  "source": "patent US9814732B2",
  "about": "“Ulipristal acetate for prevention and treatment of breast tumors” (LABORATOIRE HRA-PHARMA, priority 2012, dated 2017)",
  "key": {"PR": {"target": "T1, PR (Homo sapiens, UniProt P06401)", "T1 sequence (P06401 1-933)": "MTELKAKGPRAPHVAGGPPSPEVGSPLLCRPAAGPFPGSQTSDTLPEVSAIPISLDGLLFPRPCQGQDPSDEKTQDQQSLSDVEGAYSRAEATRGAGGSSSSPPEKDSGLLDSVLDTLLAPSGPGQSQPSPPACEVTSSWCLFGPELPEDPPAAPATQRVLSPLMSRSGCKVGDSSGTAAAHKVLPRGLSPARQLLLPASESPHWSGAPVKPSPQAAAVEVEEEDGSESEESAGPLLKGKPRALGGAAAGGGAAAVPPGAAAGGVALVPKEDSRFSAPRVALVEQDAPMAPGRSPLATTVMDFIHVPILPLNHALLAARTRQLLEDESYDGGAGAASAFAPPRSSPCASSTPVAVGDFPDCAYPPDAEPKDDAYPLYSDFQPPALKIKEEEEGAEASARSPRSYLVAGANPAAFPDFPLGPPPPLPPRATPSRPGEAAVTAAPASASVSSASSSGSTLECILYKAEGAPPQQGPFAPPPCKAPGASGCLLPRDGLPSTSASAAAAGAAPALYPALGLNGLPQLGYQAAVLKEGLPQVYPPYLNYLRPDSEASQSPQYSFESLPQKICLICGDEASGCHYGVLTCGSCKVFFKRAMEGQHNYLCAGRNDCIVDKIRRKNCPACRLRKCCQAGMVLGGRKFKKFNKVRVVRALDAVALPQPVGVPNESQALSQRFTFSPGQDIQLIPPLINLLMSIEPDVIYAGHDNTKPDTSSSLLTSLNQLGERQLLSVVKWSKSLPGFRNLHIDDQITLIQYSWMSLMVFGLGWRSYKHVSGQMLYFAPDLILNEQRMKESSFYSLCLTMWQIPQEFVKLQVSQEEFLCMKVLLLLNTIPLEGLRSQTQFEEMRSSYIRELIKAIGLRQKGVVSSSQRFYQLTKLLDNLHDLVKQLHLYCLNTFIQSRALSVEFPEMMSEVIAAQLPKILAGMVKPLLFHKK", "test": "MMTV-Luc reporter gene transactivation in T-47D cells", "assay_type": "cell-based", "design": "constitutively expressed high amounts of PR (progesterone receptor); endogenous in cells; host or cells: T-47D", "method": "T-47D and MCF-7 cell lines were respectively maintained in RPMI 1640 and in DMEM medium supplemented with 10% fetal calf serum (PAA Laboratory, Les Mureaux, France). […] Normal human breast epithelial cell (HBE) primary cultures were obtained from 20 women (aged 17-50 years). […] HBE cells were maintained in HAM F10 medium (PAA Laboratory, Les Mureaux, France) containing hydrocortisone (5 ng/ml), Triiodo-L-thyronine (6.5 ng/ml), choleratoxin (10 ng/ml), transferrin (5 mg/ml), insulin (0.016 U/ml), epidermal growth factor (10 ng/ml) (Sigma, St Quentin Fallavier, France) and 5% human serum (Etablissement Français du Sang).\nAfter seeding, cells were cultured for 24 h in serum and phenol red free medium. Then treatments were carried out in a phenol red free medium containing 5% dextran-charcoal stripped serum. […] Control cells were treated with ethanol, at 10 1:1000 final ethanol concentration alone as vehicle or E2 (10 nM).\nCells were transfected with reporter gene plasmids containing glucocorticoid and progesterone responsive elements (GRE/PRE): 1) the MMTV-Luc is a Mouse Mammary Tumor Virus Long Terminal Repeat promoter containing one GRE/PRE palindrome and three GRE/PRE hemi-palindromes upstream to firefly luciferase gene in pFC31 vector, 2) the GRELuc contains six copies of GRE/PRE palindrome upstream to firefly luciferase gene in pBL vector. When indicated, HBE cells were transfected with human PR isoforms hPR-A and hPR-B expression plasmids constructed in POP3 vectors. Rous Sarcoma Virus promoter upstream to beta galactosidase gene (pRSV-β-Gal) was transfected in each experiment as control. Transfections were performed according to the manufacturer instructions using Lipofectamine or Lipofectamine LTX Reagents (Invitrogen, Cergy-Pontoise, France) for breast cancer cell lines or HBE cells, respectively. After 24 h of transfection, breast cancer and HBE cells were treated with hormones for 24 h or 48 h, respectively. At the end of the experiment, cells were lysed and luciferase activity was determined using the Luciferase Assay System (Promega, Charbonnières-les-bains, France). Beta galactosidase activity was assessed using the Galacto Star kit (Applied Biosystems, Courtaboeuf, France) to normalize luciferase activity data."}, "HBE cells": {"test_system": "HBE cells", "test": "Apoptosis, sub-G1 quantification by flow cytometry in HBE cells", "assay_type": "cell-based, human", "conditions": "96 h", "protocol": "(§1) After seeding, cells were cultured for 24 h in serum and phenol red free medium. Then treatments were carried out in a phenol red free medium containing 5% dextran-charcoal stripped serum. Cells were treated with P or DEX (100 nM), alone or in combination with UPA, RU (1 nM to 1 μM) or CDB-3877 (100 nM). Control cells were treated with ethanol, at […] 1:1000 final ethanol concentration alone as vehicle or E2 (10 nM).\n(§2) After 96 h or 48 h of hormonal treatment, respectively, for HBE or MCF-7 and T-47D cells, cells were washed in PBS, matrix dissociated with accutase enzyme (PAA laboratory, Les Mureaux, France), and centrifuged 5 minutes at 1350 rpm. Cells were fixed and frozen at −20° C. in 70% ethanol. Before analysis, cells were washed in PBS and stained with 10 μg/ml propidium iodide in PBS (containing 0.835 U/ml RNase A) (Sigma, St Quentin Fallavier, France). For each sample at least 10 000 cells were counted in a BD LSR II flow cytometer (BD Biosciences, Le Pont de Claix, France). After gating out doublets and debris, cycle distribution was analyzed using the ModFit LT software (Verity Software House, USA)."}, "GR": {"target": "T2, GR (Homo sapiens, UniProt P04150)", "T2 sequence (P04150 1-777)": "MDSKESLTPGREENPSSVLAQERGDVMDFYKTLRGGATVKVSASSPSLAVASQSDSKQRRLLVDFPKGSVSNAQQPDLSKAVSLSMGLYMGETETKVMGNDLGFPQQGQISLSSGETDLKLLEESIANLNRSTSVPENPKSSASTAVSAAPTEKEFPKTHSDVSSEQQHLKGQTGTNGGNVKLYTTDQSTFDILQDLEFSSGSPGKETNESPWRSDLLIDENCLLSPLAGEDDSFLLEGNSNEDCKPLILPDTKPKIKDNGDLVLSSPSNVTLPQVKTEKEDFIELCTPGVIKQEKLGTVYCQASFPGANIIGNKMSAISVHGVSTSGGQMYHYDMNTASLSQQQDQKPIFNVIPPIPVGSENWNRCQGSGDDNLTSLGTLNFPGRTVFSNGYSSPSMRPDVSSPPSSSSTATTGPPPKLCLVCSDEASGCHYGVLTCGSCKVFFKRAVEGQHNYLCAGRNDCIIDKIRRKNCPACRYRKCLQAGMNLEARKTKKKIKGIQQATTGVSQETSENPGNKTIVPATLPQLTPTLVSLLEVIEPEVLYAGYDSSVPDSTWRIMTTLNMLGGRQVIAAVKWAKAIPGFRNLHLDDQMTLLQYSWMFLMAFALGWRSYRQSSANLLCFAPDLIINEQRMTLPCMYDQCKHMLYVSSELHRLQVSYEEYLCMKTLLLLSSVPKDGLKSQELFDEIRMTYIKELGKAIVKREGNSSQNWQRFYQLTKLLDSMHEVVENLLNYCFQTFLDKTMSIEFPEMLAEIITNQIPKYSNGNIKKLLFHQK", "test": "GRE-Luc reporter gene transactivation in MCF-7 cells", "assay_type": "cell-based", "design": "endogenous in cells; host or cells: MCF-7", "conditions": "MCF7, DEX 100 nM, test compound 100 nM, read-out: inhibition of DEX-induced luciferase transactivation (GRE-Luc)"}, "T-47D cells": {"test_system": "T-47D cells", "test": "Apoptosis, sub-G1 quantification by flow cytometry in T-47D cells", "assay_type": "cell-based, human", "conditions": "48 h", "protocol": "as §1, §2"}, "MCF-7 cells": {"test_system": "MCF-7 cells", "test": "Apoptosis, sub-G1 quantification by flow cytometry in MCF-7 cells", "assay_type": "cell-based, human", "conditions": "48 h", "protocol": "as §1, §2"}},
  "data": [
    {"smiles": "CC(=O)O[C@]1(C(C)=O)CCC2C3CCC4=CC(=O)CCC4=C3[C@@H](c3ccc(N(C)C)cc3)C[C@@]21C", "note": "(some centres unmarked) [UPA, 17[…]-acetoxy-11[…]-[4-N,N-dimethylamino-phenyl)-19-norpregna-4,9-diene-3,20-dione]", "values": [
      {"measurement": "PR antagonist response on MMTV-Luc transactivation at 1 nM", "setting": "PR; P 100 nM, antagonist 1 nM", "value": "Partial antagonist responses"},
      {"measurement": "PR antagonist action on MMTV-Luc transactivation", "setting": "PR; P 100 nM, antagonist 1000 to 10 nM", "value": "potent PR antagonist actions from 1000 to 10 nM"},
      {"measurement": "progestational agonist properties on reporter gene transcription", "setting": "PR; compound alone", "value": "did not exhibit progestational agonist properties"},
      {"measurement": "cell apoptosis (sub-G1 percentage), compound alone", "setting": "HBE cells; 100 nM", "value": "had no apoptotic or survival properties by itself"},
      {"measurement": "effect of UPA on DEX-mediated anti-apoptotic effect", "setting": "HBE cells; DEX 100 nM + UPA 100 nM", "value": "both hormones activities were reversed"},
      {"measurement": "effect of UPA on P-mediated apoptosis", "setting": "HBE cells; P 100 nM + UPA 100 nM", "value": "both hormones activities were reversed"},
      {"measurement": "inhibition at 0.1 µM", "setting": "GR", "value": "59 ± 3.4", "unit": "%"},
      {"measurement": "cell apoptosis (sub-G1 percentage), compound alone", "setting": "T-47D cells; 100 nM", "value": "had no apoptotic or survival properties by itself"},
      {"measurement": "effect of UPA on P-mediated apoptosis", "setting": "T-47D cells; P 100 nM + UPA 100 nM", "value": "tended to inhibit this effect"},
      {"measurement": "cell apoptosis (sub-G1 percentage), compound alone", "setting": "MCF-7 cells; 100 nM", "value": "had no apoptotic or survival properties by itself"},
      {"measurement": "effect of UPA on DEX-mediated apoptosis", "setting": "MCF-7 cells; DEX 100 nM + UPA 100 nM", "value": "totally inhibited by UPA"}
    ]}
  ]
}
